{
  "source": "patent US20150164968A1",
  "about": "“Method of Producing Banana-Derived Composition and Biologically Active Substance Containing Same” (priority 2013, published 2015)",
  "assay": "Action of antioxidation, OXY Adsorbent Test (FREE)",
  "settings": "solution at 10 mg/ml in ultrapure water",
  "description": "The banana-derived composition 4 (the secondary refined product) as the biologically active substance and vitamin C were dissolved in ultrapure water to prepare solutions each at a concentration of 10 mg/ml. An antioxidation ability was measured twice for each of the prepared solutions. In detail, the antioxidation ability against oxidation through hypochlorous acid (HClO) was measured by means of Free Radical Elective Evaluator (FREE) manufactured by […] Co., Ltd. Oxygen (OXY) Adsorbent Test was applied to the measurement. As a result of the measurement, a concentration of HClO neutralized is obtained in the unit of μmol HClO/mL. A higher concentration value means a better HClO neutralization ability, that is to say, a stronger antioxidative action.",
  "data": [
    {"smiles": "O=C1O[C@H]([C@@H](O)CO)C(O)=C1O", "note": "[Vitamin C, vitamin C]", "values": [
      {"measurement": "concentration of HClO neutralized, 1st measurement", "value": 71.7, "unit": "μmol HClO/mL"},
      {"measurement": "concentration of HClO neutralized, 2nd measurement", "value": 79.7, "unit": "μmol HClO/mL"},
      {"measurement": "concentration of HClO neutralized, Average", "setting": "average of two measurements", "value": 75.7, "unit": "μmol HClO/mL"}
    ]}
  ]
}
